Experimental findings from patent US4275071A, “Imidazole derivatives” (Recordati S.A., priority 1978, dated 1981) are described below.

Read-outs that look alike come from different tables or passages of the source.

Data set [1] relates to maximum electroshock seizure in mice. The data set is described as follows: Maximum electroshock seizure test (MES) in the mouse. As to conditions: read-out: ED50 - MES. The format is in vivo, mouse (albino race).
The subject of data set [2] is pentylenetetrazol (Metrazol) seizure in mice. Kind of data set: Subcutaneous pentylenetetrazol (Metrazol) seizure threshold test (MET) in the mouse. The data set is classed as in vivo. As to conditions: 1 h, read-out: ED50 - MET.
The nature of another data set: in vivo. The conditions noted are these: mouse, in vivo. From the text: (§1) As to MET, it is known that pentylene-tetrazol (metrazol) administered subcutaneously to mice in a loose fold of skin on the back of the neck, produces seizures. […] Failure to observe even a threshold seizure is defined as protection. In the same table the LD50 values (lethal dose 50), evaluated in the mouse both I.p. and per os, are given.

Another data set concerns mouse. The data set is described as follows: in vivo. As to conditions: i.p.
Text: as §1

The mark [3] stands for this setting: ip, mouse, i.p., electroshock 60 Hz, 0.2 sec, 25 mA, 30 or 60 minutes after administration.
Setting [4] is: po, mouse, os, electroshock 60 Hz, 0.2 sec, 25 mA, 30 or 60 minutes after administration.
[5] abbreviates: ip, mouse, i.p., pentylenetetrazol 130 mg/Kg s.c. 30 minutes after administration, observed 60 minutes.
Setting [6] is: po, mouse, os, pentylenetetrazol 130 mg/Kg s.c. 60 minutes after administration, observed 60 minutes.

Regarding `OC(Cn1ccnc1)c1ccc(CCc2ccccc2)cc1` (stereo not drawn) [15/1533, 4-[1"-hydroxy-2"-(N-imidazolyl)-ethyl]-bibenzyl], the ED50 in data set [1] (setting [3]) is 10 mg/kg; in data set [1] (setting [4]), 12 mg/kg; in data set [2] (Mus musculus, ip), 9 mg/kg; in data set [2] (Mus musculus, po), 10 mg/kg.
As for `O=C(Cn1ccnc1)c1ccc(C2CCCCC2)cc1` [15/1803], the ED50 in data set [1] (Mus musculus, ip) amounted to 66 mg/kg; in data set [1] (Mus musculus, po), 92 mg/kg; in data set [2] (Mus musculus, ip), 18 mg/kg; in data set [2] (Mus musculus, po), 32 mg/kg.
Regarding `Cc1cc(C)c(C)c(C(=O)Cn2ccnc2)c1C` [Compound 1323, 3-(N-imidazolyl-acetyl)-durene], the values for the LD50 in “in vivo” (ip) and in the data set “in vivo” (po) were 420 mg/kg and 1.17 mg/kg, respectively. Moreover, the ED50 in data set [1] (Mus musculus, ip) is 18 mg/kg; in data set [1] (Mus musculus, po), 33 mg/kg; in data set [2] (Mus musculus, ip), 19 mg/kg; in data set [2] (Mus musculus, po), 28 mg/kg.
Turning to `O=C(Cn1ccnc1)c1ccc(-c2ccccc2)cc1` [Compound 1341, 4-(N-imidazolyl-acetyl)-biphenyl], the ED50 in data set [1] (Mus musculus, ip) turned out to be 54 mg/kg; in data set [1] (Mus musculus, po) it was 76 mg/kg; in data set [2] (Mus musculus, ip) it was 28 mg/kg; in data set [2] (Mus musculus, po), 10 mg/kg.
As to `OC(Cn1ccnc1)c1ccc(-c2ccccc2)cc1` (stereo not drawn) [Compound 1342, 4-[1"-hydroxy-2"-(N-imidazolyl)-ethyl]-biphenyl], in the data set “in vivo” (ip), the 50% lethal dose (LD50) came out at 1.15 mg/kg. Also, the ED50 in data set [1] (Mus musculus, ip) was 25 mg/kg; in data set [1] (Mus musculus, po), 25 mg/kg; in data set [2] (Mus musculus, ip) it was 25 mg/kg; in data set [2] (Mus musculus, po), 20 mg/kg.
Consider `Cc1c(C)c([N+](=O)[O-])c(C)c(C)c1C(=O)Cn1ccnc1` [Compound 1429, 3-(N-imidazolyl-acetyl)-6-nitro-durene], for which the median effective dose (ED50) in data set [1] (setting [3]) was 75 mg/kg; in data set [1] (setting [4]), 54 mg/kg; in data set [2] (Mus musculus, ip), 100 mg/kg; in data set [2] (Mus musculus, po), 52 mg/kg.
As to `CC(C)CCSc1ccc(C(O)Cn2ccnc2)cc1` (stereo not drawn) [Compound 1455], the 50% lethal dose (LD50) in “in vivo” (ip) came to 420 mg/kg. Besides, the ED50 in data set [1] (setting [3]) turned out to be 15 mg/kg; in data set [1] (setting [4]) it was 31 mg/kg; in data set [2] (Mus musculus, ip), 19 mg/kg; in data set [2] (Mus musculus, po) it was 22 mg/kg.
Turning to `Cc1c(C)c(C(=O)Cn2ccnc2)c(C)c(C)c1Br` [Compound 1457, 3-(N-imidazolyl-acetyl)-6-bromo-durene], the ED50 came out at 180 mg/kg in data set [1] (Mus musculus, ip); 190 mg/kg in data set [1] (Mus musculus, po); 90 mg/kg in data set [2] (Mus musculus, ip); 57 mg/kg in data set [2] (Mus musculus, po).
In turn, `CC(C)(C(=O)c1ccc(-c2ccccc2)cc1)n1ccnc1` [Compound 1488, 4-[2"-methyl-2"-(N-imidazolyl)-propionyl]-biphenyl] registered a median lethal dose (LD50) in the data set “in vivo” (po) of 1.87 mg/kg. Also, the ED50 in data set [1] (Mus musculus, ip) stood at 30 mg/kg; in data set [1] (Mus musculus, po), 34 mg/kg; in data set [2] (Mus musculus, ip), 25 mg/kg; in data set [2] (Mus musculus, po), 37 mg/kg.
With `O=C(CCn1ccnc1)c1ccc(-c2ccccc2)cc1` [Compound 1490, 4-[3"-(N-imidazolyl)-propionyl]-biphenyl], in the data set on mouse, the LD50 is 360 mg/kg. Besides, the median effective dose (ED50) in data set [1] (Mus musculus, ip) came to 60 mg/kg; in data set [1] (Mus musculus, po) it was 36 mg/kg; in data set [2] (Mus musculus, ip), 15 mg/kg; in data set [2] (Mus musculus, po), 30 mg/kg.
For `CC(C)(C(O)c1ccc(-c2ccccc2)cc1)n1ccnc1` (stereo not drawn) [Compound 1492], the LD50 in “in vivo” (ip) was found to be 420 mg/kg; in “in vivo” (po), 2400 mg/kg. The ED50 turned out to be 24 mg/kg in data set [1] (setting [3]), 27 mg/kg in data set [1] (setting [4]), 10 mg/kg in data set [2] (setting [5]) and 14 mg/kg in data set [2] (setting [6]).
In the case of `Cc1c(C)c(C(O)Cn2ccnc2)c(C)c(C)c1Cl` (stereo not drawn) [Compound 1515, 3-[1'-hydroxy-2'-(N-imidazolyl)-ethyl]-6-chloro-durene], the ED50 turned out to be 300 mg/kg in data set [1] (setting [3]); 150 mg/kg in data set [1] (setting [4]); 150 mg/kg in data set [2] (Mus musculus, ip); 75 mg/kg in data set [2] (Mus musculus, po).
With `Cc1c(C)c(C)c(C(O)Cn2ccnc2)c(C)c1C` (stereo not drawn) [Compound 1516, 3-[1'-hydroxy-2'-(N-imidazolyl)-ethyl]-6-methyl-durene], the median lethal dose (LD50) in the data set “in vivo” (ip) is 655 mg/kg; in the data set “in vivo” (po) it was 1800 mg/kg. The ED50 in data set [1] (setting [3]) was determined as 46 mg/kg; in data set [1] (setting [4]), 57 mg/kg; in data set [2] (setting [5]) it was 13 mg/kg; in data set [2] (setting [6]) it was 35 mg/kg.
On to `Cc1c(C)c(C(=O)Cn2ccnc2)c(C)c(C)c1Cl` [Compound 1517, 3-(N-imidazolyl-acetyl)-6-chloro-durene], for which the 50% effective dose (ED50) in data set [1] (setting [3]) came to 80 mg/kg; in data set [1] (setting [4]), 80 mg/kg; in data set [2] (Mus musculus, ip), 150 mg/kg; in data set [2] (Mus musculus, po), 150 mg/kg.
For `Cc1c(C)c(C)c(C(=O)Cn2ccnc2)c(C)c1C` [Compound 1518, 3-(N-imidazolyl-acetyl)-6-methyl-durene], in the data set “in vivo” (po), the 50% lethal dose (LD50) was 1800 mg/kg. Also, the median effective dose (ED50) in data set [1] (setting [3]) is 13 mg/kg; in data set [1] (setting [4]), 45 mg/kg; in data set [2] (Mus musculus, ip) it was 23 mg/kg; in data set [2] (Mus musculus, po), 50 mg/kg.
As to `O=C(Cn1ccnc1)c1ccc(CCc2ccccc2)cc1` [Compound 1532, 4-(N-imidazolyl-acetyl)-bibenzyl], the LD50 in the data set “in vivo” (po) came to 1.55 mg/kg; in the data set with mouse, 300 mg/kg. The 50% effective dose (ED50) was 11 mg/kg in data set [1] (Mus musculus, ip); 37 mg/kg in data set [1] (Mus musculus, po); 11 mg/kg in data set [2] (Mus musculus, ip); 17 mg/kg in data set [2] (Mus musculus, po).
As for `OC(Cn1ccnc1)c1ccc(C2CCCCC2)cc1` (stereo not drawn) [Compound 1534, 1-[1'-hydroxy-2'-(N-imidazolyl)-ethyl]-4-cyclohexyl-benzene], the median lethal dose (LD50) in “in vivo” (ip) was 490 mg/kg; in the data set “in vivo” (po), 2700 mg/kg. For the same compound, the ED50 was 50 mg/kg in data set [1] (setting [3]), 60 mg/kg in data set [1] (setting [4]), 25 mg/kg in data set [2] (setting [5]) and 27 mg/kg in data set [2] (setting [6]).
Consider `CC(C(O)c1ccc(Sc2ccccc2)cc1)n1ccnc1` (stereo not drawn) [Compound 1540], for which the ED50 is 155 mg/kg in data set [1] (Mus musculus, ip); 150 mg/kg in data set [1] (Mus musculus, po); 39 mg/kg in data set [2] (Mus musculus, ip); 150 mg/kg in data set [2] (Mus musculus, po).
Turning to `CC(C)(C(O)c1ccc(Sc2ccccc2)cc1)n1ccnc1` (stereo not drawn) [Compound 1541], the ED50 in data set [1] (Mus musculus, ip) was determined as 50 mg/kg; in data set [1] (Mus musculus, po) it was 190 mg/kg; in data set [2] (Mus musculus, ip), 23 mg/kg; in data set [2] (Mus musculus, po) it was 135 mg/kg.
`O=C(OC(Cn1ccnc1)c1ccc(-c2ccccc2)cc1)c1ccccc1` (stereo not drawn) [Compound 1575, 4-[1"-benzoyloxy-2"-(N-imidazolyl)-ethyl]-biphenyl] displayed a median lethal dose (LD50) in the data set “in vivo” (po) of 1300 mg/kg. Also, the 50% effective dose (ED50) stood at 66 mg/kg in data set [1] (setting [3]); 135 mg/kg in data set [1] (setting [4]); 27 mg/kg in data set [2] (Mus musculus, ip); 62 mg/kg in data set [2] (Mus musculus, po).
As to `O=C(CCn1ccnc1)c1ccc(CCc2ccccc2)cc1` [Compound 1585], the ED50 was found to be 25 mg/kg in data set [1] (Mus musculus, ip); 100 mg/kg in data set [1] (Mus musculus, po); 25 mg/kg in data set [2] (Mus musculus, ip); 25 mg/kg in data set [2] (Mus musculus, po).
With `C(=Cn1ccnc1)c1ccc(-c2ccccc2)cc1` [Compound 1598, 4-(N-imidazolyl-vinylene)-biphenyl], the ED50 turned out to be 185 mg/kg in data set [1] (Mus musculus, ip); 145 mg/kg in data set [1] (Mus musculus, po); 69 mg/kg in data set [2] (Mus musculus, ip); 80 mg/kg in data set [2] (Mus musculus, po).
For the compound `O=C1NC(=O)C(c2ccccc2)(c2ccccc2)N1` [Diphenylidantoin, diphenylidantoin, reference compound], the ED50 in data set [1] (setting [3]) stood at 6 mg/kg; in data set [1] (setting [4]) it was 10 mg/kg; in data set [2] (setting [5]), 6 mg/kg; in data set [2] (setting [6]), 5 mg/kg.
For the compound `CCC1(c2ccccc2)C(=O)NC(=O)NC1=O` [Phenobarbital, phenobarbital, reference compound], the 50% lethal dose (LD50) in “in vivo” (ip) is 242 mg/kg; in the data set “in vivo” (po), 245 mg/kg. Also, the ED50 in data set [1] (Mus musculus, ip) is 14 mg/kg; in data set [1] (Mus musculus, po), 18 mg/kg; in data set [2] (Mus musculus, ip), 9 mg/kg; in data set [2] (Mus musculus, po), 10 mg/kg.

The ED50 is the dose that gives a 50% effect, or the effect in half of the subjects. Broadly, the LD50 is the dose expected to kill half of the subjects tested.
